Data on two molecules can be found in patent US20190292189A1, “LIM KINASE INHIBITORS” (VIRONGY, LLC, priority 2016, published 2019).

The target of one experiment is ROCK-II (Homo sapiens, UniProt O75116). The experiment is described as follows: ROCK-II biochemical counter-screen. As to conditions: read-out: ROCK-II IC50. A general note: A counterscreen serves to expose hits that act by an unwanted route or on another target.
Experiment [1] relates to RVFV (rift valley fever virus). It counts as cell-based. As to conditions: Vero cells.
The test system of the next experiment is resting CD4 T cells. Description: Surface staining of CD25 and CD69 (T cell activation). It is filed as cell-based, human. As to conditions: CD3/CD28 beads.

ROCK-II, sequence (O75116 whole entry, species assumed): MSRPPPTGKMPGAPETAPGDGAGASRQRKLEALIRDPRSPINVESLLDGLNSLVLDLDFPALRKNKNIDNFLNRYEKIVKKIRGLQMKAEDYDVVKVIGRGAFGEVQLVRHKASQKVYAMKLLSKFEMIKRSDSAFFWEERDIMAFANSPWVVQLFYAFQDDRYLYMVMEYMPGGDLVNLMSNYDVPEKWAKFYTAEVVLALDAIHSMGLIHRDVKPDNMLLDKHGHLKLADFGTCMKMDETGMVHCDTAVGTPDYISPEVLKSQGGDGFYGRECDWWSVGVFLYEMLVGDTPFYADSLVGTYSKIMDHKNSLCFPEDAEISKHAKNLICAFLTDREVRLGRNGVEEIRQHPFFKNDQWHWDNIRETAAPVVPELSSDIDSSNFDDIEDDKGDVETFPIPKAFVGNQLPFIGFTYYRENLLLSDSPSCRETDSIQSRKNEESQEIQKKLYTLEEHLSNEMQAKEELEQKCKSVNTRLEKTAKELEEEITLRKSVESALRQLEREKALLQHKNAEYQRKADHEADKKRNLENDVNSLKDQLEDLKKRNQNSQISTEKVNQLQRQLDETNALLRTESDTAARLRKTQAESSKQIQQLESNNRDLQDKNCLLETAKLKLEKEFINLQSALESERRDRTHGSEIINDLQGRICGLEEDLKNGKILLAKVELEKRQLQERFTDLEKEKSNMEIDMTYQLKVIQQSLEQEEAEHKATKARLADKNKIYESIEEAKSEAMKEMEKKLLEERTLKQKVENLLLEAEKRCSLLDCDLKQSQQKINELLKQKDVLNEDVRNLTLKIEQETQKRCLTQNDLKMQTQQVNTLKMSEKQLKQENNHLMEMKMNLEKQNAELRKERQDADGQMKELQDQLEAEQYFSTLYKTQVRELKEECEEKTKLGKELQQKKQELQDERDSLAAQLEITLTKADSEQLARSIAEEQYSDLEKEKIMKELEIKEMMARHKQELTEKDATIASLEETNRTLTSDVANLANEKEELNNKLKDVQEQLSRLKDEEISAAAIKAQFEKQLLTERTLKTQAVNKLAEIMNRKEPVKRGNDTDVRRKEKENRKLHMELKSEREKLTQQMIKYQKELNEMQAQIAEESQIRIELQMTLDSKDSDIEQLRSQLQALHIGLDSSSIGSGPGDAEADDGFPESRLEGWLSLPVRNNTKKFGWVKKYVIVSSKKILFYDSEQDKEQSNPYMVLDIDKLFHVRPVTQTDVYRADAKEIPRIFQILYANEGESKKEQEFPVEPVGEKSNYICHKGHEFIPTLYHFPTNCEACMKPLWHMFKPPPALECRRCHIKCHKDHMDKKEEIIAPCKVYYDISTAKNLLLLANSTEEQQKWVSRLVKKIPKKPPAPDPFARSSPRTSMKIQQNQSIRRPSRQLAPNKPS

As for `Cc1c[nH]c2ncnc(-c3ccc(NC(=O)N(CCO)c4ccccc4)cc3)c12` [Compound 18b, 1-(2-Hydroxyethyl)-3-(4-(5-methyl-7H-pyrrolo[2,3-d]pyrimidin-4-yl)phenyl)-1-phenylurea], the IC50 at ROCK-II was determined as 6.57 µM.

As to `COC(=O)c1ccc2[nH]c(C3CCN(c4ncnc5[nH]cc(Cl)c45)CC3)nc2c1` [Compound R10015, Methyl 2-(1-(5-chloro-7H-pyrrolo[2,3-d]pyrimidin-4-yl)piperidin-4-yl)-1Hbenzo[d]imidazole-5-carboxylate], the RVFV infection entry in experiment [1] is “inhibited”. For the same molecule, the “T cell activation (CD25 and CD69 surface staining)” value in the experiment on resting CD4 T cells is reported as “did not inhibit T cell activation”.

By IC50 is commonly meant the concentration that gives 50% inhibition.
